This is an account of results in article PMC4401082 (European journal of medicinal chemistry, 2014).

SMILES strings stand for the structures.

Assay [1] deals with T1, oCOX-1 (ovine cyclooxygenase-1) (Ovis aries, UniProt P05979).
T1 sequence (P05979 25-600): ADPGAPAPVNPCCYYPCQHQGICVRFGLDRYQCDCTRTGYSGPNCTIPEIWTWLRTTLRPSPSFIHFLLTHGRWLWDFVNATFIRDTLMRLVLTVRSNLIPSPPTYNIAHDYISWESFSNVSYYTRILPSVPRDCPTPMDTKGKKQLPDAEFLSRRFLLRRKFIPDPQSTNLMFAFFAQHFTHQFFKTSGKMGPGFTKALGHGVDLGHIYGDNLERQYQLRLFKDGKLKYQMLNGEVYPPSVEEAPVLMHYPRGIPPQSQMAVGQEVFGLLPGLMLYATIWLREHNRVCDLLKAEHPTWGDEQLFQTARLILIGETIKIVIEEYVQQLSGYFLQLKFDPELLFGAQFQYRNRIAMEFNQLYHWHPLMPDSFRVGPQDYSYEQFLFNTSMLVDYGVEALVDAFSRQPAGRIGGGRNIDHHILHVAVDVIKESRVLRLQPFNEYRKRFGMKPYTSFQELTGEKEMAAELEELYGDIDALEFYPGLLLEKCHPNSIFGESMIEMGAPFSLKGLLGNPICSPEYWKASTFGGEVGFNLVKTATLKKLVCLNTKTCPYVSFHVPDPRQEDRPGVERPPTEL
In words: [[…]-14C]-arachidonic acid TLC COX activity assay with purified enzyme. Format: biochemical.

Assay [2] concerns the target hCOX-1 (cyclooxygenase-1) (Homo sapiens, UniProt P23219). In words: [[…]-14C]-arachidonic acid metabolism in intact OVCAR-3 cells. The class given is cell-based.

Chain of hCOX-1 (cyclooxygenase-1) (P23219 24-599): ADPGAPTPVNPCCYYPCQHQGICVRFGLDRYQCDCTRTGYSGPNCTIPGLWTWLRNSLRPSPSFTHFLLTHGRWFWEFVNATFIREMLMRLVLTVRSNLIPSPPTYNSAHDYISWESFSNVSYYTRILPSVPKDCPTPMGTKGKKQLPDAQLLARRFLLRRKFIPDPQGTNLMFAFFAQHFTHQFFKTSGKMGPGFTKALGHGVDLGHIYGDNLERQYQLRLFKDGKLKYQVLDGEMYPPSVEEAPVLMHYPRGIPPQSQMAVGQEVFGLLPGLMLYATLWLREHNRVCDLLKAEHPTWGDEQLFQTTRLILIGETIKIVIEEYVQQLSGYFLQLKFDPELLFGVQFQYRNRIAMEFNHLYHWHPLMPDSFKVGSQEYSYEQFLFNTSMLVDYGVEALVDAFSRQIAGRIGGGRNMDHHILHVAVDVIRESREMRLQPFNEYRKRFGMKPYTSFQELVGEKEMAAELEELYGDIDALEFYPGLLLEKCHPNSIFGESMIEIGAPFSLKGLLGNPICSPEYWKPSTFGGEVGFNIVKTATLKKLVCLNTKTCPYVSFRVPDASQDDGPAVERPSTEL

As a reminder, the IC50 is the midpoint of a concentration-inhibition curve. Lower therefore signals greater potency in that assay. On to `FCc1onc(-c2ccc(Cl)o2)c1-c1ccccc1` [[19F]-P6, 3-(5-chlorofuran-2-yl)-5-(fluoromethyl)-4-phenylisoxazole], for which the concentration for half-maximal inhibition (IC50) in assay [1] came to 2000 nM; in assay [2], 1370 nM.
